Here are results for 18 compounds from US11071735B2, “Treatment of inflammatory conditions and autoimmune diseases with glucose uptake inhibitors” (Kadmon Corporation, LLC, priority 2017, dated 2021).

Usually IC50 stands for the point on the concentration scale where inhibition reaches its midpoint.

Structures are written as SMILES.

Format in all cases: cell-based
The target of one assay is T1, GLUT1 (Homo sapiens, UniProt P11166).
T1 construct: endogenous in cells; host or cells: DLD1 WT cancer cells
T1 sequence (P11166 1-492): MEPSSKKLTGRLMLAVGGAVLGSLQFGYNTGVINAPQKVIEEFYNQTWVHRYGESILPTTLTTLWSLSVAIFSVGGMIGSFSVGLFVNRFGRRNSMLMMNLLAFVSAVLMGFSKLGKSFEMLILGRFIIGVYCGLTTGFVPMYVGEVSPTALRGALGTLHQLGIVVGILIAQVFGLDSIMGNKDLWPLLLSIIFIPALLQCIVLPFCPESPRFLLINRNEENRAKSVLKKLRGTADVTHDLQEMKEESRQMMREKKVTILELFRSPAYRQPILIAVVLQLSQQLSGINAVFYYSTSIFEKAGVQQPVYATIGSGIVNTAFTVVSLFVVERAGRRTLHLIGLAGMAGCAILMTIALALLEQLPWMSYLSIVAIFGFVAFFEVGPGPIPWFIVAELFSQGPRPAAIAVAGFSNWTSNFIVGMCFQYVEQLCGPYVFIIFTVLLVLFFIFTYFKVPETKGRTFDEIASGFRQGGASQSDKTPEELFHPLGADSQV
Nature of the assay: glycolysis assay in DLD1 WT cells (rely on GLUT1). Particulars: DLD1-WT cells; 10 μM oligomycin, one hour. Here is the method:
(§1) Cells were treated with GLUT inhibitors plus oligomycin and subsequently ATP levels were determined using Cell Titer Glo. […] FIG. 1B reports the IC50 of glycolysis inhibition for selected compounds.
(§2) Accordingly, we have investigated the use of inhibitors of GLUT transporters against activated pro-inflammatory immune cells, including but not limited to activated human CD4+ T cells. In order to understand what GLUT transporters are required to sustain glycolysis in activated T cells, we first utilized the syngeneic cancer cell lines DLD1 WT and DLD GLUT1−/− that rely on GLUT1 and GLUT3 expression, respectively, for glucose transport. Within this system, we have identified small molecules that simultaneously have the property of inhibiting both GLUT1 and GLUT3 mediated glucose transport. In addition, we have confirmed the GLUT1-selective nature of a published small molecule inhibitor of GLUT1 (Chem Med Chem. 2016 Oct. 19; 11(20):2261-2271).
(§3) Determination of glucose uptake/GLUT activity (glycolysis assay): HT1080 cells, DLD1 cells (WT and GLUT1−/−) and human CD4+ T cells were plated in 96-well plates. Cells were exposed to the combination of 10 μM Oligomycin (to block mitochondrial-derived ATP) and the glucose uptake inhibitors disclosed herein for one-hour, after which glycolytically-derived ATP was measured with the Cell Titer-Glo assay kit (Promega). Dose-response curves of the glucose uptake inhibitors disclosed herein were used to determine the IC50 for GLUT activity.

In a further assay the test system is GLUT. Nature of the assay: glycolysis assay (oligomycin + Cell Titer-Glo ATP readout) in HT1080 cells. As to conditions: 10 μM oligomycin, one hour, glycolytically-derived ATP.
Description: The combination of inhibitors of both oxidative phosphorylation and glycolysis synergistically suppress cellular ATP levels. Therefore, our assay utilizes the combination of our glucose uptake inhibitors with oligomycin, a well-characterized inhibitor of ATP synthase. Because oligomycin inhibits ATP derived from oxidative phosphorylation, any remaining ATP production is derived from glycolysis. By reading out cellular ATP levels using the Promega
Titer Glo kit, we can assess the extent of glycolysis inhibition by our glucose uptake inhibitors. Using this experimental set-up in HT1080 cancer cells, we determined the IC50 of glycolysis inhibition for the compounds.
as §3
On the technique in general: Cellular ATP, detected with luciferase, serves as a proxy for viable cell number.

The target in another assay is T2, GLUT3 (Homo sapiens, UniProt P11169).
T2 construct: endogenous in cells; host or cells: DLD1 GLUT1−/− (knock-out) cancer cells
T2 sequence (P11169 1-496): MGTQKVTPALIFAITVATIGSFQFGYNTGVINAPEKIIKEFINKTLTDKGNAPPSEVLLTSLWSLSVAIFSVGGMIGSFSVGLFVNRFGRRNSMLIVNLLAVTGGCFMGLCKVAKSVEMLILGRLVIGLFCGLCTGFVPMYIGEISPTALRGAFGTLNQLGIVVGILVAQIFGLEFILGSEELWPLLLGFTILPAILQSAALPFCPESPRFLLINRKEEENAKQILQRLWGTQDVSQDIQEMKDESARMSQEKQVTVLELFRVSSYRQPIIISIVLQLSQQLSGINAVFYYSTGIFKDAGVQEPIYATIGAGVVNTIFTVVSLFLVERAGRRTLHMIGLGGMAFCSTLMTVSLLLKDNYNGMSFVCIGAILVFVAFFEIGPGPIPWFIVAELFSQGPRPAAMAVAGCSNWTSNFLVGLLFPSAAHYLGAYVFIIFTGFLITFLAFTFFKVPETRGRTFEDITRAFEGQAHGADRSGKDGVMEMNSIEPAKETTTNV
The assay is described as follows: glycolysis assay in DLD1 GLUT1−/− cells (rely on GLUT3). As to conditions: DLD1-KO (GLUT1−/−) cells; 10 μM oligomycin, one hour. Here is the method: as §1, §2, §3

In the case of `CCOc1ccc2nc(-c3cccc(OCC(=O)NC4CC4)c3)nc(Nc3ccc(-c4cn[nH]c4)cc3)c2c1` [Ex. 1, 2-(3-(4-((4-(1H-pyrazol-4-yl)phenyl)amino)-6-ethoxyquinazolin-2-yl)phenoxy)-N-cyclopropylacetamide], the figures for the IC50 at GLUT1, with GLUT and at GLUT3 were 52 nM, 242 nM and 129 nM, respectively.

As for `CCOc1ccc2nc(-c3cccc(OCC(=O)NC(C)(C)C)c3)nc(Nc3ccc(-c4cn[nH]c4)cc3)c2c1` [Ex. 3, 2-(3-(4-((4-(1H-pyrazol-4-yl)phenyl)amino)-6-ethoxyquinazolin-2-yl)phenoxy)-N-(tert-butyl)acetamide], the results for the IC50 at GLUT1, in the assay on GLUT and on GLUT3 were 59.6 nM, 44 nM and 33.6 nM, respectively.

Regarding `CCOc1ccc2nc(-c3cccc(OCC(=O)NC(C)(C)CC)c3)nc(Nc3ccc(-c4cn[nH]c4)cc3)c2c1` [Ex. 4, 2-(3-(4-((4-(1H-pyrazol-4-yl)phenyl)amino)-6-ethoxyquinazolin-2-yl)phenoxy)-N-(tert-pentyl)acetamide], the IC50 turned out to be 86 nM on GLUT1, 50 nM with GLUT and 148 nM at GLUT3.

`CCOc1ccc2nc(-c3cccc(OCC(=O)NC4CCCC4)c3)nc(Nc3ccc(-c4cn[nH]c4)cc3)c2c1` [Ex. 5, 2-(3-(4-((4-(1H-pyrazol-4-yl)phenyl)amino)-6-ethoxyquinazolin-2-yl)phenoxy)-N-cyclopentylacetamide]: the results for the IC50 at GLUT1, in the assay on GLUT and at GLUT3 were 81 nM, 92 nM and 104 nM, respectively.

On to `CCOc1ccc2nc(-c3cccc(OCC(=O)NC4CCC4)c3)nc(Nc3ccc(-c4cn[nH]c4)cc3)c2c1` [Ex. 6, 2-(3-(4-((4-(1H-pyrazol-4-yl)phenyl)amino)-6-ethoxyquinazolin-2-yl)phenoxy)-N-cyclobutylacetamide], for which the IC50 on GLUT1 was 94 nM; with GLUT, 141 nM; on GLUT3 it was 120 nM.

In the case of `CCOc1ccc2nc(-c3cccc(OCC(=O)NC(CC)CC)c3)nc(Nc3ccc(-c4cn[nH]c4)cc3)c2c1` [Ex. 7, 2-(3-(4-((4-(1H-pyrazol-4-yl)phenyl)amino)-6-ethoxyquinazolin-2-yl)phenoxy)-N-(pentan-3-yl)acetamide], the IC50 stood at 98 nM at GLUT1, 128 nM in the assay with GLUT and 233 nM on GLUT3.

As to `COc1ccc2nc(-c3cccc(OCC(=O)NC(C)C)c3)nc(Nc3ccc(-c4cn[nH]c4)cc3)c2c1` [Ex. 8, 2-(3-(4-((4-(1H-pyrazol-4-yl)phenyl)amino)-6-methoxyquinazolin-2-yl)phenoxy)-N-isopropylacetamide], the figures for the IC50 at GLUT1, with GLUT and at GLUT3 were 261 nM, 173 nM and 97.6 nM, respectively.

As to `COc1ccc2nc(-c3cccc(OCC(=O)NC4CC4)c3)nc(Nc3ccc(-c4cn[nH]c4)cc3)c2c1` [Ex. 9, 2-(3-(4-((4-(1H-pyrazol-4-yl)phenyl)amino)-6-methoxyquinazolin-2-yl)phenoxy)-N-cyclopropylacetamide], the figures for the IC50 at GLUT1, in the assay with GLUT and at GLUT3 were 529 nM, 367 nM and 76.1 nM, respectively.

In the case of `COc1ccc2nc(-c3cccc(OCC(=O)NC4CCCC4)c3)nc(Nc3ccc(-c4cn[nH]c4)cc3)c2c1` [Ex. 10, 2-(3-(4-((4-(1H-pyrazol-4-yl)phenyl)amino)-6-methoxyquinazolin-2-yl)phenoxy)-N-cyclopentylacetamide], the results for the IC50 on GLUT1, in the assay with GLUT and at GLUT3 were 40.5 nM, 58.9 nM and 110 nM, respectively.

In the case of `COc1ccc2nc(-c3cc(F)cc(OCC(=O)NC(C)C)c3)nc(Nc3ccc(-c4cn[nH]c4)cc3)c2c1` [Ex. 11, 2-(3-(4-((4-(1H-pyrazol-4-yl)phenyl)amino)-6-methoxyquinazolin-2-yl)-5-fluorophenoxy)-N-isopropylacetamide], the IC50 is 3480 nM at GLUT1, 1350 nM in the assay on GLUT and 325 nM at GLUT3.

For the compound `CCCNC(=O)COc1cccc(-c2nc(Nc3ccc(-c4cn[nH]c4)cc3)c3cc(OC)ccc3n2)c1` [Ex. 12, 2-(3-(4-((4-(1H-pyrazol-4-yl)phenyl)amino)-6-methoxyquinazolin-2-yl)phenoxy)-N-propylacetamide], the IC50 is 598 nM on GLUT1, 248 nM in the assay with GLUT and 166 nM at GLUT3.

In the case of `COc1ccc2nc(-c3cccc(OCC(=O)NC(C)(C)C)c3)nc(Nc3ccc(-c4cn[nH]c4)cc3)c2c1` [Ex. 13, 2-(3-(4-((4-(1H-pyrazol-4-yl)phenyl)amino)-6-methoxyquinazolin-2-yl)phenoxy)-N-(tert-butyl)acetamide], the IC50 at GLUT1 was found to be 86.9 nM; in the assay with GLUT, 54 nM; at GLUT3 it was 38.9 nM.

For the compound `COc1ccc2nc(-c3cccc(OCC(=O)NCC(C)C)c3)nc(Nc3ccc(-c4cn[nH]c4)cc3)c2c1` [Ex. 14, 2-(3-(4-((4-(1H-pyrazol-4-yl)phenyl)amino)-6-methoxyquinazolin-2-yl)phenoxy)-N-isobutylacetamide], the IC50 at GLUT1 came to 47 nM; in the assay with GLUT, 189 nM; at GLUT3 it was 134 nM.

For `COc1ccc2nc(-c3cccc(OCC(=O)NC4CC(F)(F)C4)c3)nc(Nc3ccc(-c4cn[nH]c4)cc3)c2c1` [Ex. 15, 2-(3-(4-((4-(1H-pyrazol-4-yl)phenyl)amino)-6-methoxyquinazolin-2-yl)phenoxy)-N-(3,3-difluorocyclobutyl)acetamide], the figures for the IC50 at GLUT1, with GLUT and at GLUT3 were 352 nM, 183 nM and 86.6 nM, respectively.

For `CCCNC(=O)COc1cccc(-c2nc(Nc3ccc(-c4cn[nH]c4)cc3)c3cc(OCC)ccc3n2)c1` [Ex. 16, 2-(3-(4-((4-(1H-pyrazol-4-yl)phenyl)amino)-6-ethoxyquinazolin-2-yl)phenoxy)-N-propylacetamide], the values for the IC50 on GLUT1, with GLUT and on GLUT3 were 1020 nM, 536 nM and 127 nM, respectively.

In the case of `CCOc1ccc2nc(-c3cccc(OCC(=O)NCC(C)C)c3)nc(Nc3ccc(-c4cn[nH]c4)cc3)c2c1` [Ex. 17, 2-(3-(4-((4-(1H-pyrazol-4-yl)phenyl)amino)-6-ethoxyquinazolin-2-yl)phenoxy)-N-isobutylacetamide], the IC50 was found to be 334 nM on GLUT1, 166 nM in the assay on GLUT and 92.2 nM on GLUT3.

Regarding `CCOc1ccc2nc(-c3cccc(OCC(=O)NC(C)CC)c3)nc(Nc3ccc(-c4cn[nH]c4)cc3)c2c1` (stereo not drawn) [Ex. 18, 2-(3-(4-((4-(1H-pyrazol-4-yl)phenyl)amino)-6-ethoxyquinazolin-2-yl)phenoxy)-N-(sec-butyl)acetamide], the IC50 at GLUT1 turned out to be 99.5 nM; in the assay with GLUT, 89 nM; on GLUT3, 43.9 nM.

For `CCOc1ccc2nc(-c3cccc(OCC(=O)NC4CC(F)(F)C4)c3)nc(Nc3ccc(-c4cn[nH]c4)cc3)c2c1` [Ex. 19, 2-(3-(4-((4-(1H-pyrazol-4-yl)phenyl)amino)-6-ethoxyquinazolin-2-yl)phenoxy)-N-(3,3-difluorocyclobutyl)acetamide], the IC50 was 257 nM on GLUT1, 169 nM in the assay with GLUT and 66.1 nM at GLUT3.
